# According to US12365687B2 (Hoffmann-La Roche Inc., priority 2021, dated 2025):
# Tests used:
# [1] = target: α2β2γ1 GABAA receptor subtype (Homo sapiens (Human), UniProt P47869+Q8N1C3); assay: Two-electrode voltage clamp electrophysiology in Xenopus oocytes expressing GABAA receptors (modulation of GABA EC20 current); type: cell-based; conditions: for Efficacy (GABA)%: % modulation of GABA EC20 = 100*(Fold increase-1), α2β2γ1 oocytes, compound at approx. 30-fold Ki; for Fold increase h-GABA-A α2β2γ1 oocyte @ 30-fold Ki: Xenopus oocytes expressing α2β2γ1, compound at approx. 30-fold its Ki α2β2γ1, GABA EC20 current; for potentiation of the GABA-induced current: α2β2γ1 GABAA receptor subtype expressing oocytes, GABA EC20
# Description: Xenopus laevis oocytes at maturation stages V-VI were used for the expression of cloned mRNA encoding GABAA receptor subunits. Oocytes ready for RNA micro-injection were bought from Ecocyte, Castrop-Rauxel, Germany and stored in modified Barth's medium (composition in mM: NaCl 88, KCl 1, NaHCO3 2.4, HEPES 10, MgSO4 0.82, CaNO3 0.33, CaCl2 0.33, pH=7.5) at 20° C. until the experiment.
# Oocytes were plated in 96-well plates for microinjection using the Roboinject automated instrument (MultiChannelSystems, Reutlingen, Germany). Approximately 50 nL of an aqueous solution containing the RNA transcripts for the subunits of the desired GABAA receptor subtype was injected into each oocyte. […] Oocytes were kept in modified Barth's medium (composition in mM: NaCl 88, KCl 1, NaHCO3 […], HEPES 10, MgSO4 0.82, CaNO3 0.33, CaCl2 0.33, pH=7.5) at 20° C. until the experiment.
# Electrophysiological experiments were performed using the Roboocyte instrument (MultiChannelSystems, Reutlingen, Germany) on days 3 to 5 after the micro-injection of mRNA. During the experiment the oocytes were constantly superfused by a solution containing (in mM) NaCl 90, KCl 1, HEPES 5, MgCl2 1, CaCl2 1 (pH 7.4). Oocytes were impaled by two glass microelectrodes (resistance: 0.5-0.8 MΩ) which were filled with a solution containing KCl 1M+K-acetate 1.5 M and voltage-clamped to −80 mV. The recordings were performed at room temperature using the Roboocyte two-electrode voltage clamp system (Multichannelsystem). After an initial equilibration period of 1.5 min GABA was added for 1.5 min at a concentration evoking approximately 20% of a maximal current response (EC20). After another rest interval of 2.5 min GABA was again added evoking a response of similar amplitude and shape. […] Current traces were recorded at a digitization rate of 10 Hz during and shortly before and after the GABA application.
# Each compound and concentration was tested on at least 3 oocytes. Different oocytes were used for different compound concentrations.
# For the analysis, the digitized current traces of the first and second GABA response were superimposed and, if necessary, rescaled to equal maximal amplitudes. The ratio between the two responses during the time interval of test compound application was calculated point by point. The extremum of the resulting “ratio trace” was taken as the efficacy (“Fold increase”) of the compound expressed as “% modulation of GABA EC20” (100*(Fold increase-1)).
# [2] = target: human GABAA α5β2γ1 receptor (Homo sapiens (Human), UniProt P31644+Q8N1C3); assay: Radioligand binding assay for γ1-containing GABAA subtypes, [3H]RO7239181 competition (α5β2γ1)
# Description: (§1) The affinity of compounds at GABAA γ1 subunit-containing receptors was measured by competition for [^3H]RO7239181 (67.3 Ci/mmol; Roche) binding to membranes from HEK293F cells (ThermoFisher R79007) expressing human (transiently transfected) receptors of composition α5β2γ1, α2β2γ1, α1β2γ1.
# (§2) Harvested pellets from HEK293F cells expressing the different GABAA receptor subtypes were resuspended in Mannitol Buffer pH 7.2-7.4 (Mannitol 0.29 M, Triethylamine 10 mM, Acetic acid 10 mM, EDTA 1 mM plus protease inhibitors (20 tablets Complete, Roche Diagnostics Cat. No. 05 056 489 001 per liter)), washed two times and then resuspended at 1:10 to 1:15 dilution in the same buffer. Cell disruption was performed by stirring the suspension in a Parr vessel #4637 at 435 psi for 15 minutes, and then the suspensions were centrifuged at 1000×g for 15 minutes at 4° C. (Beckman Avanti J-HC; rotor JS-4.2). The supernatant (S1) was transferred in a 2 l Schott flask and the pellet (P1) was resuspended with Mannitol Buffer up to 175 ml. The resuspended pellet was transferred into a 250 ml Corning centrifugal beaker and centrifuged at 1500×g for 10 minutes at 4° C. (Beckman Avanti J-HC; rotor JS-4.2). The supernatant (S1) was then transferred in the 2 l Schott flask and the pellet was discarded. The supernatants (S1) were centrifuged in 500 ml Beckman polypropylene centrifugal beaker at 15′000×g for 30 minutes at 4° C. (Beckman Avanti J-20 XP; rotor JLA-10.500). The pellet (P2) was resuspended with Mannitol Buffer 1:1 and frozen at −80° C. The supernatant (S2) was centrifuged in 100 ml Beckman polypropylene centrifugal tubes at 48000×g for 50 minutes at 4° C. (Beckman Avanti J-20 XP; rotor JA-18). The supernatant (S3) was discarded and the pellet (P3) was resuspended with 1:1 Mannitol Buffer. The P2 and P3 protein concentration was determined with the BIORAD Standard assay method with bovine serum albumin as standard and measured on the NANO-Drop 1000. The membrane suspension was aliquots (500 μl per tube) and stored at −80° C. until required.
# (§3) Membrane homogenates were resuspended and polytronised (Polytron PT1200E Kinematica AG) in Potassium Phosphate 10 mM, KCl 100 mM binding buffer at pH 7.4 to a final assay concentration determined with a previous experiment.
# (§4) Assays were incubated to equilibrium for 1 hour at 4° C. and then, membranes were filtered onto unifilter (96-well white microplate with bonded GF/C filters preincubated 20-50 minutes in 0.3% Polyethylenimine) with a Filtermate 196 harvester (Packard BioScience) and washed 4 times with cold Potassium Phosphate 10 mM pH 7.4, KCl 100 mM binding buffer. After anhydrousing, filter-retained radioactivity was detected by liquid scintillation counting. Ki values were calculated using Excel-Fit (Microsoft) and are the means of two determinations.
# [3] = target: human GABAA α1β3γ2 receptor (Homo sapiens (Human), UniProt P14867+P18507); assay: Radioligand binding assay for γ2-containing GABAA subtypes, [3H]Flumazenil competition (α1β3γ2); conditions: for γ2/γ1 Selectivity Ratio: Ki α1β3γ2 (nM)/Ki α2β2γ1 (nM); for LogSel: Log[Ki α1β3γ2 (nM)/Ki α2β2γ1 (nM)]
# Description: The affinity of compounds at GABAA γ2 subunit-containing receptors was measured by competition for [^3H]Flumazenil (81.1 Ci/mmol; Roche) binding to HEK293F cells expressing human (transiently transfected) receptors of composition α1β3γ2.
# Harvested pellets from HEK293F cells expressing the different GABAA γ2 receptor subtypes were resuspended in Mannitol Buffer pH 7.2-7.4 and processed as described above for the cells expressing the GABAA γ1 subunit-containing receptors.
# Assays were incubated to equilibrium for 1 hour at 4° C. and harvested onto GF/C uni-filters (Packard) by filtration using a Packard harvester and washing with ice-cold wash buffer (50 mM Tris; pH 7.5). After anhydrousing, filter-retained radioactivity was detected by liquid scintillation counting. Ki values were calculated using Excel-Fit (Microsoft) and are the means of two determinations.
# [4] = target: human GABAA α2β2γ1 receptor (Homo sapiens (Human), UniProt P47869+Q8N1C3); assay: Radioligand binding assay for γ1-containing GABAA subtypes, [3H]RO7239181 competition (α2β2γ1)
# Description: as §1, §2, §3, §4
# [5] = Ki h-GABAA α2β2γ1, [3H]RO7239181 competition binding, human GABAA α2β2γ1
# [6] = Ki h-GABAA α2β2γ1, displacement of [3H]RO7239181, membranes of HEK293F cells expressing human receptors, means of two determinations
# [7] = Ki h-GABAA α2β2γ1, Table 3, reference compounds
SMILES,Efficacy (GABA)% [1],Fold increase h-GABA-A α2β2γ1 oocyte @ 30-fold Ki [1],Ki [2],Ki [3],γ2/γ1 Selectivity Ratio [3],LogSel [3],"Ki [4, 5]","Ki [4, 6]",potentiation of the GABA-induced current [1],LogSel ([3]; Table 3),γ2/γ1 Selectivity Ratio ([3]; Table 3),"Ki [4, 7]"
"OCc1cn2c(n1)CN=C(c1c(F)cccc1F)c1c-2ccc(Br)c1Cl [Example 4, (8-bromo-7-chloro-6-(2,6-difluorophenyl)-4H-benzo[f]imidazo[1,2-a][1,4]diazepin-2-yl)methanol]",105%,2.05,1.14 nM,216 nM,24.4,1.39,8.8 nM,8.8 nM,,,,
"C[C@@H]1N=C(c2c(F)cccc2F)c2c(ccc(Cl)c2Cl)-n2cc(C(=O)N3CC(O)C3)nc21 [Example 68, (3-hydroxyazetidin-1-yl)-[(4S)-7,8-dichloro-6-(2,6-difluorophenyl)-4-methyl-4H-imidazo[1,2-a][1,4]benzodiazepin-2-yl]methanone]",107%,2.07,1.48 nM,318 nM,44.0,1.64,7.2 nM,7.2 nM,,,,
"C[C@@H]1N=C(c2c(F)cccc2F)c2c(ccc(Cl)c2Cl)-n2nc(C(=O)NC3COC3)nc21 [Example 55, (4S)-7,8-dichloro-6-(2,6-difluorophenyl)-4-methyl-N-(oxetan-3-yl)-4H-[1,2,4]triazolo[1,5-a][1,4]benzodiazepine-2-carboxamide]",58%,1.58,1.15 nM,555 nM,102.8,2.01,5.4 nM,5.4 nM,,,,
"C[C@@H]1N=C(c2c(F)cccc2F)c2c(ccc(Cl)c2Cl)-n2nc(C#N)nc21 [Example 53, (4S)-7,8-dichloro-6-(2,6-difluorophenyl)-4-methyl-4H-[1,2,4]triazolo[1,5-a][1,4]benzodiazepine-2-carbonitrile]",73%,1.73,1.65 nM,2550 nM,41.5,1.62,61.4 nM,61.4 nM,,,,
"COC1CN(C(=O)c2cn3c(n2)[C@H](C)N=C(c2ncccc2F)c2c-3ccc(C(F)(F)F)c2Cl)C1 [Example 145, [(4S)-7-chloro-6-(3-fluoro-2-pyridyl)-4-methyl-8-(trifluoromethyl)-4H-imidazo[1,2-a][1,4]benzodiazepin-2-yl]-(3-methoxyazetidin-1-yl)methanone]",168%,2.68,18.4 nM,13200 nM,141.7,2.15,93.1 nM,93.1 nM,,,,
"CN1C(=O)CN=C(c2ccccc2F)c2cc([N+](=O)[O-])ccc21 [Flunitrazepam, reference compound]",,,,,,,,,~60%,,,
"Cc1nnc2n1-c1ccc(Cl)cc1C(c1ccccc1Cl)=NC2 [Triazolam, reference compound]",,,,,,,,,~60%,−1.5,,
"Fc1cccc(F)c1C1=NCc2nc(C(F)F)cn2-c2ccc(Br)c(Cl)c21 [Example 3, 8-bromo-7-chloro-2-(difluoromethyl)-6-(2,6-difluorophenyl)-4H-benzo[f]imidazo[1,2-a][1,4]diazepine]",,,1.28 nM,455 nM,15.0,1.18,30.2 nM,30.2 nM,,,,
"CCOC(=O)c1nc2n(n1)-c1ccc(Cl)cc1C(c1ccccc1F)=NC2 [RE-B, reference compound]",,,,3.4 nM,,,,,,,0.18,18.4 nM
"C[C@@H]1N=C(c2ncccc2F)c2c(ccc(C(F)(F)F)c2Cl)-n2nc(C(=O)NCCF)nc21 [Example 152, (4S)-7-chloro-N-(2-fluoroethyl)-6-(3-fluoro-2-pyridyl)-4-methyl-8-(trifluoromethyl)-4H-[1,2,4]triazolo[1,5-a][1,4]benzodiazepine-2-carboxamide]",,,20.4 nM,> 30000 nM,333.7,2.52,89.9 nM,89.9 nM,,,,
"Cc1ncc2n1-c1ccc(Cl)cc1C(c1ccccc1F)=NC2 [Midazolam, reference compound]",,,,,,,,,~60%,−2.2,,
"C[C@@H]1N=C(c2c(F)cccc2F)c2c(ccc(C(F)(F)F)c2Cl)-n2nc(C(=O)N3CC(OC(F)F)C3)nc21 [Example 51, [3-(difluoromethoxy)azetidin-1-yl]-[(4S)-7-chloro-6-(2,6-difluorophenyl)-4-methyl-8-(trifluoromethyl)-4H-[1,2,4]triazolo[1,5-a][1,4]benzodiazepin-2-yl]methanone]",,,,1560 nM,53.3,1.73,,,,,,
"Cc1nnc2n1-c1ccc(Cl)cc1C(c1ccccc1)=NC2 [Alprazolam, reference compound]",,,,,,,,,,−2.3,,
"CN(C)C(=O)c1nc2n(n1)-c1ccc(Cl)cc1C(c1ccccc1F)=NC2 [RE-A, reference compound]",,,,35.6 nM,,,,,,,0.13,276 nM
